Experiments:
[1] = test system: PDAC cells; assay: Cell proliferation assay (crystal violet); assay type: cell-based, human; details: for PDAC growth (relative growth): 8988T cells treated with inhibitor, FIG. 7A/7B
Description: (§1) Cells were plated in 24-well plates at 2,000 cells per well in 0.5 mL of media. To deprive Gln, cells were plated in complete culture medium (10 mM glucose and 2 mM Gln) which was exchanged with Gln-free culture medium supplemented with 10% dFBS the following day. Cell culture media was not changed throughout the course of the experiment. At the indicated time points, cells were fixed in 10% formalin and stained with 0.1% crystal violet. Dye was extracted with 10% acetic acid and the relative proliferation was determined by OD at 595 nm.

[2] = test system: HPDE (non-transformed human pancreatic ductal epithelial cells); assay: Cell proliferation assay, non-transformed pancreatic ductal cells; assay type: cell-based; details: FIG. 30A/30B
Description: as §1

[3] = test system: IMR90 (human diploid fibroblasts); assay: Cell proliferation assay, diploid fibroblasts; assay type: cell-based; details: FIG. 30A/30B
Description: as §1

[4] = test system: PDAC cells; assay: Clonogenic assay; assay type: cell-based, human; details: for sensitivity of clonogenic growth upon Kras knockdown: 8988T cells expressing shKras; for sensitivity of clonogenic growth upon Kras knockdown / clonogenic growth: FIG. 34; for clonogenic growth: 8988T cells, control shRNA; for rescue of clonogenic growth upon Gln deprivation: Gln-free medium supplemented with metabolite, FIG. 5, 22, 26, 29
Description: Cells were plated in 6-well plates at 300 cells per well in 2 mL of media. Cell culture media was not changed throughout the course of the experiment. After 7-10 days, colonies were fixed in 80% methanol and stained with 0.2% crystal violet.

[5] = test system: PDAC cells (8988T, Panc1); assay: Sensitization of PDAC cells to ROS / cell viability with GLS inhibitors (Cell Titer Glo); assay type: cell-based, human; details: for relative cell viability (growth suppressive effect): 8988T or Panc1 cells, GLS inhibitor alone, FIG. 36; for relative cell viability, GLS inhibitor combined with H2O2: 8988T, Panc1, 968 or BPTES (100 nM) with increasing H2O2, FIG. 37, 38
Description: PDAC cell lines were plated into 96-well plates at 10^3 cells/well in 200 μL of growth medium. The following day, growth medium was replaced with that containing GLS inhibitors and/or H2O2. Parallel plates were analyzed at 3, 6 and 9 days by Cell Titer Glo analysis (Promega), per the manufacturer's instruction. […] BPTES was a kind gift from Jaime Escobedo (Forma Therapeutics, Watertown, Mass.).

[6] = test system: 8988T cells; assay: ROS quantification (DCFDA assay, flow cytometry); assay type: cell-based, human
Description: The DCFDA assay was performed 24 hr after supplementing Gln-free media with either OAA (4 mM) or dimethyl malate (4 mM). Cells were incubated with 5 μM 2′,7′-dichlorodihydrofluorescein diacetate (DCFDA, Invitrogen) for 30 min. Excess DCFDA was removed by washing the cells twice with PBS, and labeled cells were then trypsinized, rinsed, and resuspended in PBS. Oxidation of DCFDA to the highly fluorescent 2′,7′-dichloro-fluorescein (DCF) is proportionate to ROS generation and was analyzed by flow cytometry.

For `NOCC(=O)O` [AOA, aminooxyacetate], the “PDAC growth (relative growth)” value [1] was “robustly inhibited the growth”, the “growth (relative growth) of HPDE cells” value [2] was “no significant effect on growth” and the “growth (relative growth) of IMR90 cells” value [3] was “no significant effect on growth”. The “sensitivity of clonogenic growth upon Kras knockdown” value [4] was “significantly more resistant” and the clonogenic growth [4] was “significantly inhibited clonogenic growth”.
In the case of `O=C(Cc1ccccc1)Nc1nnc(CCSCCc2nnc(NC(=O)Cc3ccccc3)s2)s1` [BPTES], the “relative cell viability (growth suppressive effect)” value [5] is reported as “growth suppressive effect” and the “relative cell viability, GLS inhibitor combined with H2O2” value [5] is reported as “dramatically augmented”.
In the case of `O=C(O[C@@H]1Cc2c(O)cc(O)cc2O[C@@H]1c1cc(O)c(O)c(O)c1)c1cc(O)c(O)c(O)c1` [EGCG, Epigallocatechin Gallate], the “PDAC growth (relative growth)” value [1] is reported as “little effect”, the “growth (relative growth) of HPDE cells” value [2] is reported as “significantly sensitive” and the “sensitivity of clonogenic growth upon Kras knockdown” value [4] is reported as “sensitive”. For the same molecule, the clonogenic growth [4] was “minimal effects”.
For `N[C@@H](CCC(=O)N[C@@H](CS)C(=O)NCC(=O)O)C(=O)O` [GSH, reduced glutathione], the “rescue of clonogenic growth upon Gln deprivation” value [4] was “dramatically rescued the clonogenic survival”.
`CN(C)c1ccc(C2Nc3ccc4ccccc4c3C3=C2C(=O)CC(C)(C)C3)cc1Br` (stereo not shown) [compound 968] was tested, and the “relative cell viability (growth suppressive effect)” value [5] was “growth suppressive effect” and the “relative cell viability, GLS inhibitor combined with H2O2” value [5] was “dramatically augmented”.
In the case of `COC(=O)CCC(=O)C(=O)OC` [dimethyl αKG], the “rescue of clonogenic growth upon Gln deprivation” value [4] is reported as “did not restore growth”.
In the case of `COC(=O)CC(O)C(=O)OC` (stereo not shown) [dimethyl-malate], the “rescue of PDAC cell growth upon GOT1 knockdown” value ([1]; 8988T cells expressing shGOT1, 4 mM supplement, FIG. 28) is reported as “partially rescue PDAC cell growth”, the “rescue of cell proliferation upon Gln deprivation” value ([1]; Gln-free medium supplemented with metabolite, FIG. 6, 27) is reported as “partially rescue PDAC cell growth” and the “ROS levels (DCFDA signal) upon GOT1 knockdown” value ([6]; 8988T cells expressing shGOT1, medium supplementation) is reported as “rescued the oxidative stress”. For the same molecule, the “ROS levels (DCFDA signal) upon Gln deprivation” value ([6]; Gln-free media supplemented 24 hr, 4 mM) was “rescued the oxidative stress”.

— patent US10837015B2, “Targeting the glutamine to pyruvate pathway for treatment of oncogenic Kras-associated cancer” (Dana-Farber Cancer Institute, Inc., priority 2012, dated 2020)
